{"source": "paper PMC6273209", "about": "“Evaluation of the Enantiomer Specific Biokinetics and Radiation Doses of [^18F]Fluspidine—A New Tracer in Clinical Translation for Imaging of σ1 Receptors” (Molecules, 2016)", "assay": "First-in-human PET/CT dosimetry study", "assay_type": "in vivo", "conditions": "for ED: first-in-human (clinical)", "description": "The first-in-human use of (S)-(−)-[^18F]fluspidine was authorized by the competent authorities in Germany, the Federal Institute for Drugs and Medical Devices (Bundesamt für Arzneimittel und Medizinprodukte, BfArM) and the Federal Office for Radiation Protection (Bundesamt für Strahlenschutz, BfS) as well as by the local ethics committee and was conducted in accordance with the Declaration of Helsinki. Informed consent was obtained from four healthy volunteers (2 f, 2 m; age: 23 ± 3 years; weight: 56 ± 4 kg). The volunteers were positioned supine with the arms down in a clinical PET/CT system (Biograph 16, Siemens, Erlangen, Germany) and received an intravenous injection of 255 ± 9 MBq (S)-(−)-[^18F]fluspidine. Simultaneously, the PET scan was started. It was divided into a dynamic part up to 2 h p.i. (7 frames) and a static part up to 7 h p.i. The volunteers left the investigation table four times to stretch out. All urine was collected, weighed, and the activity was determined in a gamma-counter (Packard Cobra II 5003 Auto Gamma Counting System, GMI, Ramsey, MN, USA) cross calibrated to the PET/CT system.\nThe PET images were iteratively (ordered-subsets expectation maximization, OSEM) reconstructed (preclinical: 4 iterations, 6 subsets; clinical: 4 iterations, 8 subsets) and corrected for decay, randoms, scatter, and dead time, μ-maps for attenuation correction of PET-emission data were derived from the CT or MR [49] structural data, respectively. The PET data were re-binned into 10 time frames (preclinical: 4 × 5 min, 1 × 10 min, and 5 × 15 min; clinical: 4 × 12 min, 3 × 16 min, 1 × 32 min, 1 × 40 min, and 1 × 48 min), and the reconstructed PET/MRI and PET/CT images were co-registered manually with ROVER (ABX, advanced chemical compounds, Radeberg, Germany, version 2.1.17). Quantitative evaluation was performed by drawing volumes of interest (VOI) for brain, gallbladder, large intestine, small intestine, stomach, heart, kidneys, liver, lungs, pancreas, red marrow (backbone, pelvis, sternum), spleen, thyroid, testes, and urinary bladder (Figure S4). The PET derived biokinetic data is expressed as percentage of injected activity (dose) per cubic centimeter (%ID/cm^3).\nThe human dosimetry estimation was performed with the data extrapolated as well as the genuine human data using OLINDA/EXM software. The time-activity curves were estimated by exponential fitting and calculating the time integral, which equals the number of disintegrations (NODs) per organ during the observation period normalized to 1 Becquerel administered activity dose. […] Therefore, activity data of the urinary bladder was derived from the image for each time point. In contrast, for humans the activity concentration data of the urinary bladder was obtained in a more direct approach. At first, the activity and volume of urine was determined in the last frame of the PET scan before each micturition. Afterwards, the voided urine was collected, weighed, and the activity of three aliquots (assuming 1 mL = 1 g) determined with a gamma counter, and the activity of the whole sample estimated. The difference between imaged and sampled urine activity is equal to the residue of radioactive urine in the urinary bladder. To calculate the NOD in the human urinary bladder, the time-activity curve is integrated using a trapezoidal equation (3) %ID˜UB=1/2∑i=1n−1(%IDi+%IDi+1)(ti+1−ti) with the fraction of injected activity %IDi at the time ti and the cumulated activity of the urinary bladder i.e., the NOD %ID˜UB .\nFurthermore, the NODs of the gastric system were calculated following the ICRP GI model (ICRP 30) as implemented in OLINDA 1.0. The NODs obtained either from the EXM module or the trapezoidal equation were transferred to OLINDA. The OD for the chosen hermaphroditic adult male phantom is estimated following the MIRD scheme. The S values are pre-calculated and implemented for the respective phantom in OLINDA. […]", "key": {"[1]": {"conditions": "first-in-human PET/CT, adult male model"}, "[2]": {"conditions": "first-in-human PET/CT, ICRP 103 weighting"}, "[3]": {"conditions": "four volunteers after i.v. injection"}}}
{"molecule": "FCC[C@@H]1OC2(CCN(Cc3ccccc3)CC2)c2ccccc21", "note": "[(S)-(−)-[^18F]fluspidine]", "values": [{"measurement": "ED", "setting": "four healthy volunteers, ICRP 103 weighting", "value": "21.0 ± 1.3", "unit": "μSv/MBq"}, {"measurement": "ED", "setting": "four healthy volunteers, ICRP 103 weighting, listed as (S)-(−)-[^18F]Fluspidine", "value": 21.0, "unit": "μSv/MBq"}, {"measurement": "OD Adrenals", "setting": "[1]", "value": 15.3, "unit": "μSv/MBq"}, {"measurement": "OD Brain", "setting": "[1]", "value": 22.6, "unit": "μSv/MBq"}, {"measurement": "OD Breasts", "setting": "[1]", "value": 6.5, "unit": "μSv/MBq"}, {"measurement": "OD Gallbladder Wall", "setting": "[1]", "value": 60.7, "unit": "μSv/MBq"}, {"measurement": "OD Heart Wall", "setting": "[1]", "value": 17.7, "unit": "μSv/MBq"}, {"measurement": "OD Kidneys", "setting": "[1]", "value": 31.1, "unit": "μSv/MBq"}, {"measurement": "OD LLI Wall", "setting": "[1]", "value": 16.6, "unit": "μSv/MBq"}, {"measurement": "OD Liver", "setting": "[1]", "value": 76.0, "unit": "μSv/MBq"}, {"measurement": "OD Lungs", "setting": "[1]", "value": 28.2, "unit": "μSv/MBq"}, {"measurement": "OD Muscle", "setting": "[1]", "value": 7.8, "unit": "μSv/MBq"}, {"measurement": "OD Osteogenic Cells", "setting": "[1]", "value": 18.0, "unit": "μSv/MBq"}, {"measurement": "OD Ovaries", "setting": "[1]", "value": 13.8, "unit": "μSv/MBq"}, {"measurement": "OD Pancreas", "setting": "[1]", "value": 15.9, "unit": "μSv/MBq"}, {"measurement": "OD Red Marrow", "setting": "[1]", "value": 23.2, "unit": "μSv/MBq"}, {"measurement": "OD Skin", "setting": "[1]", "value": 5.3, "unit": "μSv/MBq"}, {"measurement": "OD Small Intestine", "setting": "[1]", "value": 56.9, "unit": "μSv/MBq"}, {"measurement": "OD Spleen", "setting": "[1]", "value": 24.0, "unit": "μSv/MBq"}, {"measurement": "OD Stomach Wall", "setting": "[1]", "value": 31.5, "unit": "μSv/MBq"}, {"measurement": "OD Testes", "setting": "[1]", "value": 8.0, "unit": "μSv/MBq"}, {"measurement": "OD Thymus", "setting": "[1]", "value": 7.5, "unit": "μSv/MBq"}, {"measurement": "OD Thyroid", "setting": "[1]", "value": 8.4, "unit": "μSv/MBq"}, {"measurement": "OD Total Body", "setting": "[1]", "value": 11.4, "unit": "μSv/MBq"}, {"measurement": "OD ULI Wall", "setting": "[1]", "value": 24.3, "unit": "μSv/MBq"}, {"measurement": "OD Urinary Bladder Wall", "setting": "[1]", "value": 24.7, "unit": "μSv/MBq"}, {"measurement": "OD Uterus", "setting": "[1]", "value": 13.0, "unit": "μSv/MBq"}, {"measurement": "ED Contr. Adrenals", "setting": "[2]", "value": 0.1, "unit": "μSv/MBq"}, {"measurement": "ED Contr. Brain", "setting": "[2]", "value": 0.2, "unit": "μSv/MBq"}, {"measurement": "ED Contr. Breasts", "setting": "[2]", "value": 0.8, "unit": "μSv/MBq"}, {"measurement": "ED Contr. Gallbladder Wall", "setting": "[2]", "value": 0.5, "unit": "μSv/MBq"}, {"measurement": "ED Contr. Heart Wall", "setting": "[2]", "value": 0.2, "unit": "μSv/MBq"}, {"measurement": "ED Contr. Kidneys", "setting": "[2]", "value": 0.3, "unit": "μSv/MBq"}, {"measurement": "ED Contr. LLI Wall", "setting": "[2]", "value": 1.0, "unit": "μSv/MBq"}, {"measurement": "ED Contr. Liver", "setting": "[2]", "value": 3.0, "unit": "μSv/MBq"}, {"measurement": "ED Contr. Lungs", "setting": "[2]", "value": 3.4, "unit": "μSv/MBq"}, {"measurement": "ED Contr. Muscle", "setting": "[2]", "value": 0.1, "unit": "μSv/MBq"}, {"measurement": "ED Contr. Osteogenic Cells", "setting": "[2]", "value": 0.2, "unit": "μSv/MBq"}, {"measurement": "ED Contr. Ovaries", "setting": "[2]", "value": 1.0, "unit": "μSv/MBq"}, {"measurement": "ED Contr. Pancreas", "setting": "[2]", "value": 0.1, "unit": "μSv/MBq"}, {"measurement": "ED Contr. Red Marrow", "setting": "[2]", "value": 2.8, "unit": "μSv/MBq"}, {"measurement": "ED Contr. Skin", "setting": "[2]", "value": 0.1, "unit": "μSv/MBq"}, {"measurement": "ED Contr. Small Intestine", "setting": "[2]", "value": 0.5, "unit": "μSv/MBq"}, {"measurement": "ED Contr. Spleen", "setting": "[2]", "value": 0.2, "unit": "μSv/MBq"}, {"measurement": "ED Contr. Stomach Wall", "setting": "[2]", "value": 3.8, "unit": "μSv/MBq"}, {"measurement": "ED Contr. Testes", "setting": "[2]", "value": 0.8, "unit": "μSv/MBq"}, {"measurement": "ED Contr. Thymus", "setting": "[2]", "value": 0.1, "unit": "μSv/MBq"}, {"measurement": "ED Contr. Thyroid", "setting": "[2]", "value": 0.3, "unit": "μSv/MBq"}, {"measurement": "ED Contr. Total Body", "setting": "[2]", "value": 0.0, "unit": "μSv/MBq"}, {"measurement": "ED Contr. ULI Wall", "setting": "[2]", "value": 1.5, "unit": "μSv/MBq"}, {"measurement": "ED Contr. Urinary Bladder Wall", "setting": "[2]", "value": 1.0, "unit": "μSv/MBq"}, {"measurement": "ED Contr. Uterus", "setting": "[2]", "value": 0.1, "unit": "μSv/MBq"}, {"measurement": "ED ICRP 60", "setting": "first-in-human, four healthy volunteers, ICRP 60 weighting", "value": 22.1, "unit": "μSv/MBq"}, {"measurement": "adverse effects", "setting": "[3]", "value": "no adverse effects reported"}, {"measurement": "changes in vital signs", "setting": "[3]", "value": "no significant changes in vital signs"}, {"measurement": "clearance of the radioligand from organs", "setting": "human TACs, brain, stomach, liver, spleen", "value": "rapidly removed from brain, stomach, liver, and spleen within one hour post injection"}, {"measurement": "actual ED from the human study in comparison to the extrapolated animal data", "setting": "human vs extrapolated animal data, p < 0.001", "value": 1.6, "unit": "fold"}]}
